{"source": "ChEMBL document CHEMBL1130184", "about": "“Effect of a chemical modification on the hydrated adenosine intermediate produced by adenosine deaminase and a model reaction for a potential mechanism of action of 5-aminoimidazole ribonucleotide carboxylase” (J Med Chem, 1997)", "key": {"[1]": {"target": "T1, Adenosine deaminase (Bos taurus) (UniProt P56658)", "T1 sequence (whole entry)": "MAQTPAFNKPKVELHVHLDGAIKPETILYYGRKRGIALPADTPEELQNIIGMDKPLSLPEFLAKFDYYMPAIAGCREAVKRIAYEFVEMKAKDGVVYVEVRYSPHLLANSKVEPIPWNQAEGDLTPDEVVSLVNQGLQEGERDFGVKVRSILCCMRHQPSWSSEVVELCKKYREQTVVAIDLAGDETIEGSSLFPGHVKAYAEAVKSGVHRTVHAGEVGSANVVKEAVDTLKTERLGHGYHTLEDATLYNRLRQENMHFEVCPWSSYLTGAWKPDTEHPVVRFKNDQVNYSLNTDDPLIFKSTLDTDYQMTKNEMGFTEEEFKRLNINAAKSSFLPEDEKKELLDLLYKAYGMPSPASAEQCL", "assay": "Inhibitory activity of compound at 25 uM against adenosine deaminase"}, "Adenosine deaminase [2]": {"target": "T2, Adenosine deaminase (Bos taurus, UniProt P56658)", "T2 sequence (P56658 whole entry)": "T1 sequence (whole entry)", "assay": "Apparent binding constant against adenosine deaminase"}, "Adenosine deaminase [3]": {"target": "T2, Adenosine deaminase", "assay": "Inhibitory activity against adenosine deaminase"}}, "data": [{"smiles": "Nc1ncnc2c1ncn2[C@@H]1O[C@H](CO)[C@@H](O)[C@H]1O", "values": [{"measurement": "inhibition", "setting": "[1]", "result": 15, "unit": "%"}]}, {"smiles": "O=CNc1cn([C@@H]2O[C@H](CO)[C@@H](O)[C@H]2O)cn1", "values": [{"measurement": "Ki", "setting": "Adenosine deaminase [2]", "result": 40, "unit": "µM"}]}, {"smiles": "Nc1ccnc2c1ncn2[C@@H]1O[C@H](CO)[C@@H](O)[C@H]1O", "values": [{"measurement": "Ki", "setting": "Adenosine deaminase [3]", "result": 0.18, "unit": "µM"}]}]}
